The target in experiment [1] is T1, Rat recombinant PDE10A (rPDE10A2) (Rattus norvegicus, UniProt Q9QYJ6).
T1 construct: made in house; host or cells: Sf9 insect cells, baculovirus
T1 sequence (Q9QYJ6 1-794): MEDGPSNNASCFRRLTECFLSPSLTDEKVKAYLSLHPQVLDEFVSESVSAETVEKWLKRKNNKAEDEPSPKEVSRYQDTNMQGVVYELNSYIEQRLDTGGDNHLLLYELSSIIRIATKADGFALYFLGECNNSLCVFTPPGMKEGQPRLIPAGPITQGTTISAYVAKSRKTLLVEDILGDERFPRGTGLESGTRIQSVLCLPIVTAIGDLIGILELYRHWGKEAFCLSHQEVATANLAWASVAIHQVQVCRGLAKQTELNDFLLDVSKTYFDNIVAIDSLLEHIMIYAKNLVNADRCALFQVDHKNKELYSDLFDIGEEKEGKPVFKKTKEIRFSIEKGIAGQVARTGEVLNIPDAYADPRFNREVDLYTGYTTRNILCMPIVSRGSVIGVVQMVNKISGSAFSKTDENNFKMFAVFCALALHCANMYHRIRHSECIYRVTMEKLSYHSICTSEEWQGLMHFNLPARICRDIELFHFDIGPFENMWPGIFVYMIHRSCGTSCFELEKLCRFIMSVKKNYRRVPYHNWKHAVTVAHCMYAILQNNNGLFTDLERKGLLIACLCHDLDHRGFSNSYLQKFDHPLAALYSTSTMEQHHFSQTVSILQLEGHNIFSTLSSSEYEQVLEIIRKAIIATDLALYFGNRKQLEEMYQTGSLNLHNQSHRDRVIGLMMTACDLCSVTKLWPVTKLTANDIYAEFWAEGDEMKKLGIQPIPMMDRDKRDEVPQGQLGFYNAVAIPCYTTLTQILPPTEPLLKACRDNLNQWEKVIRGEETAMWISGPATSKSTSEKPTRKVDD
The experiment in a line: In vitro assay PDE10A (SPA, 3H-cAMP). It counts as biochemical. In a few lines: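 Purified Sf9-expressed rat PDE10A2 incubated 60 min at RT with 60 nM cAMP plus 0.008 μCi 3H-cAMP in 50 mM Tris pH 7.8, 8.3 mM MgCl2, 1.7 mM EGTA, 1% DMSO final. Product quantified by scintillation proximity counting against no-enzyme blanks and DMSO controls.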

The target in a further experiment is PDE2A (Homo sapiens, UniProt O00408). The experiment in a line: In vitro PDE selectivity assay, PDE2A. Format: biochemical. Particulars: Table 4a in vitro selectivity; read-out: IC50 PDE type 2A. As to the method: (§1) Rat recombinant PDE10A (rPDE10A2) was expressed in Sf9 cells using a recombinant rPDE10A baculovirus construct. Cells were harvested after 48 h of infection and the rPDE10A protein was purified by metal chelate chromatography on Ni-sepharose 6FF. […] The reaction was incubated for 60 min. at RT. […] After sedimentation of the beads during 30 min. the radioactivity was measured in a Perkin Elmer Topcount scintillation counter and results were expressed as cpm. For blank values the enzyme was omitted from the reaction and replaced by incubation buffer. […] The same assay principle is applied for the measurement of the affinity of the compound for other members of the PDE family with appropriate modifications in incubation buffer, substrate concentration, incubation time and stop solution.
PDE2A, sequence (O00408 whole entry, species assumed): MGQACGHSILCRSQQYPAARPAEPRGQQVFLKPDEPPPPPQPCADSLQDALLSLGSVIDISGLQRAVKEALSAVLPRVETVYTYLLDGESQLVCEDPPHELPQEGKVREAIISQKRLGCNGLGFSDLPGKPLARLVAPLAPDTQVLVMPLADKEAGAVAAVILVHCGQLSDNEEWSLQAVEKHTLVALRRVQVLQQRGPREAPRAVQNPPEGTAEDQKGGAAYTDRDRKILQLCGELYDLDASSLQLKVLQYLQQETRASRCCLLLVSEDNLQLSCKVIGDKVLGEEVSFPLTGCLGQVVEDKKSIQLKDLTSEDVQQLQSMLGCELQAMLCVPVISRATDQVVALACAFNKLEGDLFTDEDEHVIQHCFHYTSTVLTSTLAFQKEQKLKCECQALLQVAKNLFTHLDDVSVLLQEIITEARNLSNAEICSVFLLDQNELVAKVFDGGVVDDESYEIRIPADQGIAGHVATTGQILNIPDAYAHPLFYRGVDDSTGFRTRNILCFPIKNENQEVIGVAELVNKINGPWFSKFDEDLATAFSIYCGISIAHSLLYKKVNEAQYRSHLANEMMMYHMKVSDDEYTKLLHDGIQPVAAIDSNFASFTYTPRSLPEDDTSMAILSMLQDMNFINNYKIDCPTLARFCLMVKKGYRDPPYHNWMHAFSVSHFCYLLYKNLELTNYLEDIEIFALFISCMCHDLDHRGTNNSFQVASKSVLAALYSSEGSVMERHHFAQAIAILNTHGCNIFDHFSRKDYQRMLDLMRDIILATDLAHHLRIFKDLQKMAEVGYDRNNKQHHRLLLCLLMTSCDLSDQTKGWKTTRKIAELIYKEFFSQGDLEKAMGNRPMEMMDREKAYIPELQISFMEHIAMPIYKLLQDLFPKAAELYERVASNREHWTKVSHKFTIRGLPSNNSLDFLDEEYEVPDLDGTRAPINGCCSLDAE

For a further experiment, the target named is PDE4D (Homo sapiens, UniProt Q08499). The experiment in a line: In vitro PDE selectivity assay, PDE4D. It counts as biochemical. Particulars: Table 4a in vitro selectivity; read-out: IC50 PDE type 4D. As to the method: as §1
PDE4D, sequence (Q08499 whole entry, species assumed): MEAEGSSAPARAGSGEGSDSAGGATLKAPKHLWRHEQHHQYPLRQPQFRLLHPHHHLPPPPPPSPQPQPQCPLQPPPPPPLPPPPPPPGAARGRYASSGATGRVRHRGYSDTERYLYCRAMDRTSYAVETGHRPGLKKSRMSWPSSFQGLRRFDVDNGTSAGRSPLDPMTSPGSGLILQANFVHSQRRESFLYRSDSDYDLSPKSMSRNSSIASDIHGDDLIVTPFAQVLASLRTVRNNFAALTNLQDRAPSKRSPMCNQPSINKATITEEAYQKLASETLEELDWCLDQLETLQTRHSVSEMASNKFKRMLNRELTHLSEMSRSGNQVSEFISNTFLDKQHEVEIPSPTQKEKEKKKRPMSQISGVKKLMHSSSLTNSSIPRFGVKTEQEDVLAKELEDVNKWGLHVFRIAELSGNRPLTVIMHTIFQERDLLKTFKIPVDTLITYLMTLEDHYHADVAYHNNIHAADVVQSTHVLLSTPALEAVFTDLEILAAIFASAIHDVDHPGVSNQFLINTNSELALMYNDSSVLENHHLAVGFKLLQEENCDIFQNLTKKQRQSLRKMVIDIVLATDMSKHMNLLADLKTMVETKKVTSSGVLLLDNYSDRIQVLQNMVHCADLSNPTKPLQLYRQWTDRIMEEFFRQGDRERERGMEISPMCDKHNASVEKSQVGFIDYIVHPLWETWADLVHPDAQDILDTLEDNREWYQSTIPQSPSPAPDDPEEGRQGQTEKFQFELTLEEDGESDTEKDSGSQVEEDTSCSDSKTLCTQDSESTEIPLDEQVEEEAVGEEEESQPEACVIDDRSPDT
The test system of experiment [2] is PCP-induced hyperlocomotion. The experiment in a line: PCP-induced hyperlocomotion in rats (PCP). It counts as in vivo. Particulars: Rattus norvegicus.
Experiment [3] has as its system conditioned avoidance response. The experiment in a line: Conditioned avoidance response (CAR) test. Format: in vivo. The settings on record: Rattus norvegicus. From the text: Conditioned Avoidance Response (CAR) Test
The apparatus consisted of an inner box surrounded by an outer box. The inner box was composed of four walls of transparent, synthetic material (length×width×height: 30×30×30 cm), an open top, and a grid floor made of 15 pairs of iron bars (2 mm diameter; 6 mm inter-bar distance). Odd and even bars were connected with a source of alternative current (1.0 mA; Coulbourn Instruments Solid State Shocker/Distributor), which could be interrupted by a switch. The outer box was composed of the same material (length×width×height: 40×40×36 cm), also with an open top, with a distance of 5 cm between the inner and outer box on all sides. To decrease the amount of environmental stimuli, three walls of the outer box were made non-transparent. The front wall was left transparent to allow the necessary inspection of the animal during the test. The upper edge of the outer and inner box served as a target for the rats on which to jump with fore- and hind-paws, respectively.
From their arrival in the laboratory on the experimental day, male Wiga Wistar rats (230±30 g) were housed in individual cages provided with bedding material.
The rats were tested 3 times, i.e. at 60, 90 and 120 min after the injection of test compound or solvent. Latency to avoidance was recorded. The median avoidance response obtained over the three experimental sessions for each rat were used for further calculations.

Like-named read-outs stand apart in the source and are kept apart here.

Consider `Cc1nc2c(N3CCOCC3)nccn2c1-c1ccc(C2CCOCC2)nc1` [compound 25, 2-Methyl-8-morpholin-4-yl-3-[6-(tetrahydro-pyran-4-yl)-pyridin-3-yl]-imidazo[1,2-a]pyrazine], for which the IC50 in experiment [1] (Table 4a in vitro selectivity, read-out: IC50 PDE type 10A) was 0.16 µM; in experiment [1] (pIC50 corresponds to the -log IC50 expressed in mol/L, read-out: PDE10A2 pIC50 (converted)), 0.191 µM; at PDE2A, 42.7 µM; on PDE4D, 58.9 µM. The ED50 in experiment [2] came out at 2 mg/kg; in experiment [3], 4.1 mg/kg.
